Assay results taken from ChEMBL document CHEMBL2321731, “Structure-Based Design of Irreversible Human KAT II Inhibitors: Discovery of New Potency-Enhancing Interactions” (ACS Med Chem Lett, 2013).
The source made the active and inactive calls. The rule behind the calls is not given here.

What was measured:
[1] = molecular target: T1, Kynurenine/alpha-aminoadipate aminotransferase, mitochondrial (Homo sapiens, UniProt Q8N5Z0); assay: Irreversible inhibition of human KAT2 using L-kynurenine as substrate measured every 5 mins over 16 hrs by SpectraMax plate reader analysis
[2] = molecular target: T2, Kynurenine--oxoglutarate transaminase 1 (Homo sapiens, UniProt Q16773); assay: Inhibition of human KAT1 using L-kynurenine as substrate measured after 16 hrs by SpectraMax plate reader analysis
T2 sequence (Q16773 whole entry): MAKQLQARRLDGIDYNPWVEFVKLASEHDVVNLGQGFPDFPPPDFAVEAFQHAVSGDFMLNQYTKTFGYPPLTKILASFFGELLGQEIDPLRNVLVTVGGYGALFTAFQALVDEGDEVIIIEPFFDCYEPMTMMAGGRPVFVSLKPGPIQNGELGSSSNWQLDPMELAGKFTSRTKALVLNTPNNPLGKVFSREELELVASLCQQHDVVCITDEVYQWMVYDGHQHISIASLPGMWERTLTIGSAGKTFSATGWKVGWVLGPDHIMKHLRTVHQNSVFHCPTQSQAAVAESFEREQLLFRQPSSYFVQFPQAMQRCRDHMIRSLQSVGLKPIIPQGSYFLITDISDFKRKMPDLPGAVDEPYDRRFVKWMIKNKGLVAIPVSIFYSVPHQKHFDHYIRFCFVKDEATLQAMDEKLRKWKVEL

[3] = system: Kynurenine/alpha-aminoadipate aminotransferase, mitochondrial (Homo sapiens), Q8N5Z0 [K240S,F241G]; assay: Binding affinity to C-terminal hexa histidine tagged full length human KAT2 K240S/F241G mutant harboring C-terminal thrombin cleavage site at 1 mM after 2 hrs by X-ray crystallography in presence of 2 mM PLP
Sequence of Kynurenine/alpha-aminoadipate aminotransferase, mitochondrial (Homo sapiens), Q8N5Z0 [K240S,F241G] (Q8N5Z0 whole entry K240S/F241G): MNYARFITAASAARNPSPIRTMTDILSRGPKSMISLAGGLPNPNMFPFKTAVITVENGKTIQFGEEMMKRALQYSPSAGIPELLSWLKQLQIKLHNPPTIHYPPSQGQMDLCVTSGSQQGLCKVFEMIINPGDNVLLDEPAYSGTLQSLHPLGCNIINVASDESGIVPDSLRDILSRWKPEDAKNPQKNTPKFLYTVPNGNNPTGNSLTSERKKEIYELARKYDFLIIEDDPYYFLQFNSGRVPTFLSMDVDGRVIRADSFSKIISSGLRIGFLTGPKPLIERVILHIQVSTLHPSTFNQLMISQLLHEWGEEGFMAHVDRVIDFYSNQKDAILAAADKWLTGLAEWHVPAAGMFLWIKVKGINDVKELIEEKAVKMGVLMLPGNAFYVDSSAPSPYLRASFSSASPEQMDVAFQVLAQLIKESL

[4] = Unbound fraction in Sprague-Dawley rat brain at 10 mg/kg, sc by equilibrium dialysis method; type: ADME, organism-based; parameters: dose 10 mg/kg, route subcutaneous
[5] = molecular target: T1, Kynurenine/alpha-aminoadipate aminotransferase, mitochondrial; assay: Ratio of Kinact to Ki for human KAT2 using L-kynurenine as substrate by SpectraMax plate reader analysis
Target sequence in this assay (Q8N5Z0 30-425 limits assumed): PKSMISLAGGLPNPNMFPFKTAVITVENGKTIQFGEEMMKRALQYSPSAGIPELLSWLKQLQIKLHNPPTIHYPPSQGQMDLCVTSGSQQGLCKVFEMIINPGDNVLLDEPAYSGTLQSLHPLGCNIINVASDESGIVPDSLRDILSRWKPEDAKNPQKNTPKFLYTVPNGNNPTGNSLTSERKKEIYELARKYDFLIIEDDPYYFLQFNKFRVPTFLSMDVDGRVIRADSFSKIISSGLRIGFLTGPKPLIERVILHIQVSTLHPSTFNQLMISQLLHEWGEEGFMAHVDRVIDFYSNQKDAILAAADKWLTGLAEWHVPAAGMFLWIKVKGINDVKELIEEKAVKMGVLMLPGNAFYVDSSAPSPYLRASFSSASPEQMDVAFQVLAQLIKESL

[6] = molecular target: Kynurenine/alpha-aminoadipate aminotransferase, mitochondrial (Rattus norvegicus) (UniProt Q64602); assay: Ratio of Kinact to Ki for rat KAT2 using L-kynurenine as substrate by SpectraMax plate reader analysis
Sequence of Kynurenine/alpha-aminoadipate aminotransferase, mitochondrial (Rattus norvegicus) (Q64602 30-425 limits assumed): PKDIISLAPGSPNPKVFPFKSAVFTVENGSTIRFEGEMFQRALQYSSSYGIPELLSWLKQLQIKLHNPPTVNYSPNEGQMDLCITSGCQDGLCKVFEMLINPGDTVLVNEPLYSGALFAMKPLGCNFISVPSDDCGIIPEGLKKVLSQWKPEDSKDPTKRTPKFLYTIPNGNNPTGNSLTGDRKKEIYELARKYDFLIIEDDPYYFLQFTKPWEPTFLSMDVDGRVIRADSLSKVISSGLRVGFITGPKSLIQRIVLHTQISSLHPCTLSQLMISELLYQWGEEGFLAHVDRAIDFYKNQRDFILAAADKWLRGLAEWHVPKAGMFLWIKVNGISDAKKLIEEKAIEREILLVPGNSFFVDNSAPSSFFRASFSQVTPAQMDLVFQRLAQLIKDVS

[7] = system: Rattus norvegicus; assay: Decrease in extracellular KYNA level in Sprague-Dawley rat prefrontal cortex at 10 mg/kg, sc measured for 4 hrs by microdialysis method; type: functional, organism-based; parameters: dose 10 mg/kg
[8] = system: Brain; assay: AUC in Sprague-Dawley rat brain at 10 mg/kg, sc by LC-MS/MS analysis; type: ADME, organism-based; parameters: dose 10 mg/kg, route subcutaneous; settings: in vivo
[9] = molecular target: Kynurenine--oxoglutarate transaminase 3 (Homo sapiens, UniProt Q6YP21); assay: Inhibition of human KAT3 using L-kynurenine as substrate measured after 24 hrs by SpectraMax plate reader analysis
Sequence of Kynurenine--oxoglutarate transaminase 3 (Q6YP21 whole entry): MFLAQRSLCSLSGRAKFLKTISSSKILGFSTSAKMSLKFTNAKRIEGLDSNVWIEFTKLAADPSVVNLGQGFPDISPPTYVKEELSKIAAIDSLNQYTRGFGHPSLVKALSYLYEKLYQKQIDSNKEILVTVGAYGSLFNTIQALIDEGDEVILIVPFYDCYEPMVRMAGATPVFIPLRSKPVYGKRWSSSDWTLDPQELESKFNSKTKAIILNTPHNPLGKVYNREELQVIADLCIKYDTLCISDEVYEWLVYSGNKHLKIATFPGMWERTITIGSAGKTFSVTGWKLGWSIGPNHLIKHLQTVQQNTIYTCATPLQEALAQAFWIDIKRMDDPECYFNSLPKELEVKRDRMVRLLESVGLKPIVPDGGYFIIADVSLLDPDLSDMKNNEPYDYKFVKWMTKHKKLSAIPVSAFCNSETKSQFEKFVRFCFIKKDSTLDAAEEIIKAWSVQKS

[10] = system: Brain; assay: fAUC in Sprague-Dawley rat brain at 10 mg/kg, sc by equilibrium dialysis method; type: ADME, organism-based; parameters: dose 10 mg/kg, route subcutaneous; settings: in vivo
[11] = system: Brain; assay: Ratio of hydroxamate fAUC to compound fAUC in Sprague-Dawley rat brain at 10 mg/kg, sc by equilibrium dialysis method; type: ADME, organism-based; parameters: dose 10 mg/kg, route subcutaneous; settings: in vivo
[12] = molecular target: T1, Kynurenine/alpha-aminoadipate aminotransferase, mitochondrial; assay: Inhibition of human KAT2 using L-kynurenine as substrate measured after 15-20 hrs by SpectraMax plate reader analysis
Target sequence in this assay (Q8N5Z0 whole entry): as the sequence (Q8N5Z0 whole entry K240S/F241G) above, with S240K, G241F counted along it

Row | SMILES | Ki [1] | Kinact [1] | IC50 [2] | Activity [3] | fraction unbound [4] | Ratio [5] | Ratio [6] | inhibition [7] | AUC [8] | IC50 [9] | fAUC [10] | Ratio [11] | IC50 [12]
1 | N[C@H]1Cc2ccccc2N(O)C1=O | 0.0142 µM | 0.0156 min⁻¹ | 30.4 µM | Active | 0.393 | 18500 | 573 | Active | 1486 ng·h/g | 9.04 µM | 584 ng·h/g |  | 
2 | N[C@H]1Cc2cc(Oc3ccccc3)ccc2N(O)C1=O | 0.0071 µM | 0.0108 min⁻¹ | 2.04 µM | Active | 0.0099 | 26800 | 9070 | Active | 6602 ng·h/g | 1.23 µM | 65 ng·h/g | 9 | 0.023 µM
3 | COc1ccc2c(c1)N(O)C(=O)[C@@H](N)C2 | 0.0077 µM | 0.0137 min⁻¹ | 15.3 µM | Active |  | 31700 | 1840 |  |  | 6.4 µM |  |  | 
